Columns and labels:
Format in all cases: in vivo
[1] = test system: barnyardgrass (Echinochloa crus-galli (L.) P. Beauv. var. crus-galli); test: Test Example 3: herbicidal effect by application to upland field (foliage treatment); settings: foliage treatment, plants grown two weeks, 1,000 g active ingredient per hectare, 14th day after application
In short: (§1)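 Dose 1,000 g active ingredient/ha, sprayed as diluted wettable powder over entire plants two weeks after sowing in field soil. Kept in greenhouse; herbicidal effect graded on a standard scale on day 14.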

[2] = test system: slender amaranth (Amaranthus viridis L.); test: as above; settings: foliage treatment, plants grown two weeks, 1,000 g active ingredient per hectare, 14th day after application
In short: as §1

[3] = test system: velvetleaf (Abutilon theophrasti medicus); test: as above; settings: foliage treatment, plants grown two weeks, 1,000 g active ingredient per hectare, 14th day after application
In short: as §1

[4] = test system: green foxtail (Setaria viridis (L.) P. Beauv.); test: as above; settings: foliage treatment, plants grown two weeks, 1,000 g active ingredient per hectare, 14th day after application
In short: as §1

[5] = test system: Japanese bulrush (Scirpus juncoides Roxb.); test: Test Example 1: herbicidal effect by soil application to paddy field; settings: paddy field soil application; active ingredient 1,000 g per 1 hectare; wettable powder added dropwise to water surface the day after sowing; examined on the 21st day after application
In short: (§2)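 Under greenhouse conditions, seeds sown on puddled paddy soil in 100 cm2 pots under 3 cm of standing water received the test compound; injury was assessed with a standard scoring scheme three weeks (day 21) after treatment.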

[6] = test system: early watergrass (Echinochloa oryzicola Vasing); test: as above; settings: paddy field soil application; active ingredient 1,000 g per 1 hectare; wettable powder added dropwise to water surface the day after sowing; examined on the 21st day after application
In short: as §2

[7] = test system: heartshape false pickerelweed (Monochoria vaginalis (Burm.f.) C.Presl); test: as above; settings: paddy field soil application; active ingredient 1,000 g per 1 hectare; wettable powder added dropwise to water surface the day after sowing; examined on the 21st day after application
In short: as §2

[8] = test system: barnyardgrass (Echinochloa crus-galli (L.) P. Beauv. var. crus-galli); test: Test Example 2: herbicidal effect by soil application to upland field; settings: soil surface spray, upland field soil, 1,000 g active ingredient per hectare, 21st day after application
In short: (§3)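 Scoring on a standard scale took place 21 days after application, with plants kept in a greenhouse. Active ingredient (1,000 g/ha, as diluted wettable powder, 1,000 L/ha) was sprayed evenly onto soil directly after sowing and covering seeds.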

[9] = test system: slender amaranth (Amaranthus viridis L.); test: as above; settings: soil surface spray, upland field soil, 1,000 g active ingredient per hectare, 21st day after application
In short: as §3

[10] = test system: velvetleaf (Abutilon theophrasti medicus); test: as above; settings: soil surface spray, upland field soil, 1,000 g active ingredient per hectare, 21st day after application
In short: as §3

[11] = test system: green foxtail (Setaria viridis (L.) P. Beauv.); test: as above; settings: soil surface spray, upland field soil, 1,000 g active ingredient per hectare, 21st day after application
In short: as §3

O=C1CCCC(O)=C1C(=O)c1ccc(C(F)(F)F)n(CC(F)(F)F)c1=O [I-10]
herbicidal effect (index), Barnyardgrass [1]: 5 (90% or more of herbicidal effect and crop phytotoxicity)
herbicidal effect (index), Slender Amaranth [2]: 5 (90% or more of herbicidal effect and crop phytotoxicity)
herbicidal effect (index), Velvetleaf [3]: 5 (90% or more of herbicidal effect and crop phytotoxicity)
herbicidal effect (index), Green Foxtail [4]: 4 (70 to less than 90% of herbicidal effect and crop phytotoxicity)
herbicidal effect, Scirpus juncoides Roxb. [5]: 5 (90% or more of herbicidal effect and crop phytotoxicity)
herbicidal effect, Echinochloa oryzicola Vasing [6]: 5 (90% or more of herbicidal effect and crop phytotoxicity)
herbicidal effect, Monochoria vaginalis (Burm. f.) C. Presl [7]: 5 (90% or more of herbicidal effect and crop phytotoxicity)
herbicidal effect (index), Barnyardgrass [8]: 5 (90% or more of herbicidal effect and crop phytotoxicity)
herbicidal effect (index), Slender Amaranth [9]: 3 (50 to less than 70% of herbicidal effect and crop phytotoxicity)
herbicidal effect (index), Velvetleaf [10]: 5 (90% or more of herbicidal effect and crop phytotoxicity)
herbicidal effect (index), Green Foxtail [11]: 3 (50 to less than 70% of herbicidal effect and crop phytotoxicity)

C=CCn1c(C(F)(F)F)ccc(C(=O)C2=C(O)CCCC2=O)c1=O [I-11]
herbicidal effect (index), Barnyardgrass [1]: 5 (90% or more of herbicidal effect and crop phytotoxicity)
herbicidal effect (index), Slender Amaranth [2]: 5 (90% or more of herbicidal effect and crop phytotoxicity)
herbicidal effect (index), Velvetleaf [3]: 5 (90% or more of herbicidal effect and crop phytotoxicity)
herbicidal effect (index), Green Foxtail [4]: 5 (90% or more of herbicidal effect and crop phytotoxicity)
herbicidal effect, Scirpus juncoides Roxb. [5]: 5 (90% or more of herbicidal effect and crop phytotoxicity)
herbicidal effect, Echinochloa oryzicola Vasing [6]: 5 (90% or more of herbicidal effect and crop phytotoxicity)
herbicidal effect, Monochoria vaginalis (Burm. f.) C. Presl [7]: 5 (90% or more of herbicidal effect and crop phytotoxicity)
herbicidal effect (index), Barnyardgrass [8]: 5 (90% or more of herbicidal effect and crop phytotoxicity)
herbicidal effect (index), Slender Amaranth [9]: 5 (90% or more of herbicidal effect and crop phytotoxicity)
herbicidal effect (index), Velvetleaf [10]: 5 (90% or more of herbicidal effect and crop phytotoxicity)
herbicidal effect (index), Green Foxtail [11]: 4 (70 to less than 90% of herbicidal effect and crop phytotoxicity)

O=C1CCCC(O)=C1C(=O)c1ccc(C(F)(F)F)n(C2CC2)c1=O [I-16]
herbicidal effect (index), Barnyardgrass [1]: 5 (90% or more of herbicidal effect and crop phytotoxicity)
herbicidal effect (index), Slender Amaranth [2]: 5 (90% or more of herbicidal effect and crop phytotoxicity)
herbicidal effect (index), Velvetleaf [3]: 5 (90% or more of herbicidal effect and crop phytotoxicity)
herbicidal effect (index), Green Foxtail [4]: 5 (90% or more of herbicidal effect and crop phytotoxicity)
herbicidal effect, Scirpus juncoides Roxb. [5]: 5 (90% or more of herbicidal effect and crop phytotoxicity)
herbicidal effect, Echinochloa oryzicola Vasing [6]: 5 (90% or more of herbicidal effect and crop phytotoxicity)
herbicidal effect, Monochoria vaginalis (Burm. f.) C. Presl [7]: 5 (90% or more of herbicidal effect and crop phytotoxicity)
herbicidal effect (index), Barnyardgrass [8]: 5 (90% or more of herbicidal effect and crop phytotoxicity)
herbicidal effect (index), Slender Amaranth [9]: 5 (90% or more of herbicidal effect and crop phytotoxicity)
herbicidal effect (index), Velvetleaf [10]: 5 (90% or more of herbicidal effect and crop phytotoxicity)
herbicidal effect (index), Green Foxtail [11]: 5 (90% or more of herbicidal effect and crop phytotoxicity)

O=C1CCCC(O)=C1C(=O)c1ccc(C(F)(F)F)n(C2CCCC2)c1=O [I-18]
herbicidal effect (index), Barnyardgrass [1]: 5 (90% or more of herbicidal effect and crop phytotoxicity)
herbicidal effect (index), Slender Amaranth [2]: 5 (90% or more of herbicidal effect and crop phytotoxicity)
herbicidal effect (index), Velvetleaf [3]: 5 (90% or more of herbicidal effect and crop phytotoxicity)
herbicidal effect (index), Green Foxtail [4]: 5 (90% or more of herbicidal effect and crop phytotoxicity)
herbicidal effect, Scirpus juncoides Roxb. [5]: 5 (90% or more of herbicidal effect and crop phytotoxicity)
herbicidal effect, Echinochloa oryzicola Vasing [6]: 5 (90% or more of herbicidal effect and crop phytotoxicity)
herbicidal effect, Monochoria vaginalis (Burm. f.) C. Presl [7]: 5 (90% or more of herbicidal effect and crop phytotoxicity)
herbicidal effect (index), Barnyardgrass [8]: 5 (90% or more of herbicidal effect and crop phytotoxicity)
herbicidal effect (index), Slender Amaranth [9]: 5 (90% or more of herbicidal effect and crop phytotoxicity)
herbicidal effect (index), Velvetleaf [10]: 5 (90% or more of herbicidal effect and crop phytotoxicity)
herbicidal effect (index), Green Foxtail [11]: 5 (90% or more of herbicidal effect and crop phytotoxicity)

O=C1CCCC(O)=C1C(=O)c1ccc(C(F)(F)F)n(CC2CC2)c1=O [I-20]
herbicidal effect (index), Barnyardgrass [1]: 5 (90% or more of herbicidal effect and crop phytotoxicity)
herbicidal effect (index), Slender Amaranth [2]: 5 (90% or more of herbicidal effect and crop phytotoxicity)
herbicidal effect (index), Velvetleaf [3]: 5 (90% or more of herbicidal effect and crop phytotoxicity)
herbicidal effect (index), Green Foxtail [4]: 5 (90% or more of herbicidal effect and crop phytotoxicity)
herbicidal effect, Scirpus juncoides Roxb. [5]: 5 (90% or more of herbicidal effect and crop phytotoxicity)
herbicidal effect, Echinochloa oryzicola Vasing [6]: 5 (90% or more of herbicidal effect and crop phytotoxicity)
herbicidal effect, Monochoria vaginalis (Burm. f.) C. Presl [7]: 5 (90% or more of herbicidal effect and crop phytotoxicity)
herbicidal effect (index), Barnyardgrass [8]: 5 (90% or more of herbicidal effect and crop phytotoxicity)
herbicidal effect (index), Slender Amaranth [9]: 5 (90% or more of herbicidal effect and crop phytotoxicity)
herbicidal effect (index), Velvetleaf [10]: 5 (90% or more of herbicidal effect and crop phytotoxicity)
herbicidal effect (index), Green Foxtail [11]: 5 (90% or more of herbicidal effect and crop phytotoxicity)

O=C1CCCC(O)=C1C(=O)c1ccc(C(F)(F)F)n(CCC=C(Cl)Cl)c1=O [I-26]
herbicidal effect (index), Barnyardgrass [1]: 4 (70 to less than 90% of herbicidal effect and crop phytotoxicity)
herbicidal effect (index), Slender Amaranth [2]: 5 (90% or more of herbicidal effect and crop phytotoxicity)
herbicidal effect (index), Velvetleaf [3]: 5 (90% or more of herbicidal effect and crop phytotoxicity)
herbicidal effect (index), Green Foxtail [4]: 4 (70 to less than 90% of herbicidal effect and crop phytotoxicity)
herbicidal effect, Scirpus juncoides Roxb. [5]: 5 (90% or more of herbicidal effect and crop phytotoxicity)
herbicidal effect, Echinochloa oryzicola Vasing [6]: 5 (90% or more of herbicidal effect and crop phytotoxicity)
herbicidal effect, Monochoria vaginalis (Burm. f.) C. Presl [7]: 5 (90% or more of herbicidal effect and crop phytotoxicity)
herbicidal effect (index), Barnyardgrass [8]: 5 (90% or more of herbicidal effect and crop phytotoxicity)
herbicidal effect (index), Slender Amaranth [9]: 5 (90% or more of herbicidal effect and crop phytotoxicity)
herbicidal effect (index), Velvetleaf [10]: 5 (90% or more of herbicidal effect and crop phytotoxicity)
herbicidal effect (index), Green Foxtail [11]: 5 (90% or more of herbicidal effect and crop phytotoxicity)

COCCn1c(C(F)(F)F)ccc(C(=O)C2=C(O)CCCC2=O)c1=O [I-31]
herbicidal effect (index), Barnyardgrass [1]: 5 (90% or more of herbicidal effect and crop phytotoxicity)
herbicidal effect (index), Slender Amaranth [2]: 5 (90% or more of herbicidal effect and crop phytotoxicity)
herbicidal effect (index), Velvetleaf [3]: 5 (90% or more of herbicidal effect and crop phytotoxicity)
herbicidal effect (index), Green Foxtail [4]: 5 (90% or more of herbicidal effect and crop phytotoxicity)
herbicidal effect, Scirpus juncoides Roxb. [5]: 5 (90% or more of herbicidal effect and crop phytotoxicity)
herbicidal effect, Echinochloa oryzicola Vasing [6]: 5 (90% or more of herbicidal effect and crop phytotoxicity)
herbicidal effect, Monochoria vaginalis (Burm. f.) C. Presl [7]: 5 (90% or more of herbicidal effect and crop phytotoxicity)
herbicidal effect (index), Barnyardgrass [8]: 5 (90% or more of herbicidal effect and crop phytotoxicity)
herbicidal effect (index), Slender Amaranth [9]: 5 (90% or more of herbicidal effect and crop phytotoxicity)
herbicidal effect (index), Velvetleaf [10]: 5 (90% or more of herbicidal effect and crop phytotoxicity)
herbicidal effect (index), Green Foxtail [11]: 5 (90% or more of herbicidal effect and crop phytotoxicity)

CCOCCn1c(C(F)(F)F)ccc(C(=O)C2=C(O)CCCC2=O)c1=O [I-32]
herbicidal effect (index), Barnyardgrass [1]: 5 (90% or more of herbicidal effect and crop phytotoxicity)
herbicidal effect (index), Slender Amaranth [2]: 5 (90% or more of herbicidal effect and crop phytotoxicity)
herbicidal effect (index), Velvetleaf [3]: 5 (90% or more of herbicidal effect and crop phytotoxicity)
herbicidal effect (index), Green Foxtail [4]: 5 (90% or more of herbicidal effect and crop phytotoxicity)
herbicidal effect, Scirpus juncoides Roxb. [5]: 5 (90% or more of herbicidal effect and crop phytotoxicity)
herbicidal effect, Echinochloa oryzicola Vasing [6]: 5 (90% or more of herbicidal effect and crop phytotoxicity)
herbicidal effect, Monochoria vaginalis (Burm. f.) C. Presl [7]: 5 (90% or more of herbicidal effect and crop phytotoxicity)
herbicidal effect (index), Barnyardgrass [8]: 5 (90% or more of herbicidal effect and crop phytotoxicity)
herbicidal effect (index), Slender Amaranth [9]: 5 (90% or more of herbicidal effect and crop phytotoxicity)
herbicidal effect (index), Velvetleaf [10]: 5 (90% or more of herbicidal effect and crop phytotoxicity)
herbicidal effect (index), Green Foxtail [11]: 5 (90% or more of herbicidal effect and crop phytotoxicity)
